What was measured:
[1] = test system: Tyrosine-protein kinase ABL1 (Homo sapiens), P00519 [T315I]; conditions: Compound concentration 1000.0 nM
[2] = biological target: Tyrosine-protein kinase ABL1 (Homo sapiens) (UniProt P00519); conditions: Compound concentration 1000.0 nM
[3] = biological target: ALK tyrosine kinase receptor (Homo sapiens) (UniProt Q9UM73); conditions: Compound concentration 1000.0 nM
[4] = test system: ALK tyrosine kinase receptor (Homo sapiens), Q9UM73 [C1156Y]; conditions: Compound concentration 1000.0 nM
[5] = biological target: Cyclin-dependent kinase 5 (Homo sapiens) (UniProt Q00535); conditions: Compound concentration 1000.0 nM
Sequence of Cyclin-dependent kinase 5 (Homo sapiens) (Q00535 whole entry, looked up): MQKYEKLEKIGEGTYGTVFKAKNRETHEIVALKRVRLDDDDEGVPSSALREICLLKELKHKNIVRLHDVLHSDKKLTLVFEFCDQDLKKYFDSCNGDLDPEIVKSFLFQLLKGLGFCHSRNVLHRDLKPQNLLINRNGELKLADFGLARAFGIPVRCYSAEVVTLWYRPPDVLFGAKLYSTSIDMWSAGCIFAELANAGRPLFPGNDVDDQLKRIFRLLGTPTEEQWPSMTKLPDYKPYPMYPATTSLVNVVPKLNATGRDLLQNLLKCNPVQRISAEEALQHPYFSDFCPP

[6] = biological target: Cyclin-dependent kinase 9 (Homo sapiens) (UniProt P50750); conditions: Compound concentration 1000.0 nM
Sequence of Cyclin-dependent kinase 9 (Homo sapiens) (P50750 whole entry): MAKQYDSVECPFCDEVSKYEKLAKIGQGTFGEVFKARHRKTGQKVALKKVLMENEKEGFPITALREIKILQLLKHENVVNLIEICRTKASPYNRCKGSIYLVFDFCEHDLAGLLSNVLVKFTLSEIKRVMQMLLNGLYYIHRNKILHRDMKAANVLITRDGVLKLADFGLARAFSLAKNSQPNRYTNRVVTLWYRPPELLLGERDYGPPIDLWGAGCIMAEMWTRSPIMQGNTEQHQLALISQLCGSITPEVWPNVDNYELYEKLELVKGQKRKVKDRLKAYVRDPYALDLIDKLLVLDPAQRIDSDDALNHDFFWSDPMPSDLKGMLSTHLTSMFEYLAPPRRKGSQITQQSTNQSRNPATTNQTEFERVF

[7] = biological target: Cyclin-dependent kinase-like 2 (Homo sapiens) (UniProt Q92772); conditions: Compound concentration 1000.0 nM
[8] = biological target: Cyclin-dependent kinase-like 5 (Homo sapiens) (UniProt O76039); conditions: Compound concentration 1000.0 nM
[9] = biological target: Serine/threonine-protein kinase Chk2 (Homo sapiens) (UniProt O96017); conditions: Compound concentration 1000.0 nM
Sequence of Serine/threonine-protein kinase Chk2 (Homo sapiens) (O96017 whole entry, canonical isoform): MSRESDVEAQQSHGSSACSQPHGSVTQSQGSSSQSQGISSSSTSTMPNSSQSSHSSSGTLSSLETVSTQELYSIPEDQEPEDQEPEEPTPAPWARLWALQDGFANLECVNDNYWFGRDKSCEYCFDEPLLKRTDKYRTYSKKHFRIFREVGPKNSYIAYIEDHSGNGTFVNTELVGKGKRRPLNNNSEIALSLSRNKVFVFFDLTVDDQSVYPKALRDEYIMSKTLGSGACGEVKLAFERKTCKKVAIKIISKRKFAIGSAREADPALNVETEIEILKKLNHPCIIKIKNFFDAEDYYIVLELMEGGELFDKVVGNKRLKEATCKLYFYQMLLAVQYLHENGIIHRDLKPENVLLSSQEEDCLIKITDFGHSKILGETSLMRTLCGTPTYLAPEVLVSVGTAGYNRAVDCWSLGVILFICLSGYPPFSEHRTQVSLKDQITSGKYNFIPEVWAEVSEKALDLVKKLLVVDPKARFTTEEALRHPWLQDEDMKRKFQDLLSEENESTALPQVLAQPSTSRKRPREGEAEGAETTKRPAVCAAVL

[10] = biological target: Casein kinase I isoform alpha-like (Homo sapiens) (UniProt Q8N752); conditions: Compound concentration 1000.0 nM
[11] = biological target: Dual specificity tyrosine-phosphorylation-regulated kinase 2 (Homo sapiens) (UniProt Q92630); conditions: Compound concentration 1000.0 nM
[12] = biological target: Receptor tyrosine-protein kinase erbB-2 (Homo sapiens) (UniProt P04626); conditions: Compound concentration 1000.0 nM
[13] = biological target: Focal adhesion kinase 1 (Homo sapiens) (UniProt Q05397); conditions: Compound concentration 1000.0 nM
[14] = biological target: Receptor-type tyrosine-protein kinase FLT3 (Homo sapiens) (UniProt P36888); conditions: Compound concentration 1000.0 nM
[15] = biological target: Cyclin-G-associated kinase (Homo sapiens) (UniProt O14976); conditions: Compound concentration 1000.0 nM
[16] = biological target: Rhodopsin kinase GRK7 (Homo sapiens) (UniProt Q8WTQ7); conditions: Compound concentration 1000.0 nM
Sequence of Rhodopsin kinase GRK7 (Homo sapiens) (Q8WTQ7 whole entry): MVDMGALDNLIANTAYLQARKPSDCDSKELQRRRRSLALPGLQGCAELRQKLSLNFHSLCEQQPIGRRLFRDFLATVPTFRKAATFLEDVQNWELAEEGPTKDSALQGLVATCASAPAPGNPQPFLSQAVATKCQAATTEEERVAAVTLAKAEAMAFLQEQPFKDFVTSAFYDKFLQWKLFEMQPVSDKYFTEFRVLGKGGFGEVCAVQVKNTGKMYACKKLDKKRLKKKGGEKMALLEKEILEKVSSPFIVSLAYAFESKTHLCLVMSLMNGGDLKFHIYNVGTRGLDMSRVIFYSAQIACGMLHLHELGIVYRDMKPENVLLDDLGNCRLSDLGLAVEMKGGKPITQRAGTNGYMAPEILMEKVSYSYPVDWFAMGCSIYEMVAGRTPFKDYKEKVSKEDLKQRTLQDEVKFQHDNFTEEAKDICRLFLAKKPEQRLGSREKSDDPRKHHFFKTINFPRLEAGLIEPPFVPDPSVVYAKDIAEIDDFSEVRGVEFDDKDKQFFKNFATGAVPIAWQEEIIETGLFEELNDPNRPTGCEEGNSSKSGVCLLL

[17] = biological target: Tyrosine-protein kinase JAK2 (Homo sapiens) (UniProt O60674); conditions: Compound concentration 1000.0 nM
[18] = biological target: Serine/threonine-protein kinase MAK (Homo sapiens) (UniProt P20794); conditions: Compound concentration 1000.0 nM
[19] = biological target: Mitogen-activated protein kinase kinase kinase kinase 4 (Homo sapiens) (UniProt O95819); conditions: Compound concentration 1000.0 nM
[20] = biological target: Serine/threonine-protein kinase MARK2 (Homo sapiens) (UniProt Q7KZI7); conditions: Compound concentration 1000.0 nM
[21] = biological target: Dual specificity mitogen-activated protein kinase kinase 6 (Homo sapiens) (UniProt P52564); conditions: Compound concentration 1000.0 nM
[22] = biological target: Myosin light chain kinase family member 4 (Homo sapiens) (UniProt Q86YV6); conditions: Compound concentration 1000.0 nM
[23] = biological target: Serine/threonine-protein kinase Nek11 (Homo sapiens) (UniProt Q8NG66); conditions: Compound concentration 1000.0 nM
[24] = biological target: Serine/threonine-protein kinase Nek4 (Homo sapiens) (UniProt P51957); conditions: Compound concentration 1000.0 nM
[25] = biological target: Serine/threonine-protein kinase PAK 2 (Homo sapiens) (UniProt Q13177); conditions: Compound concentration 1000.0 nM
Sequence of Serine/threonine-protein kinase PAK 2 (Homo sapiens) (Q13177 whole entry, canonical isoform): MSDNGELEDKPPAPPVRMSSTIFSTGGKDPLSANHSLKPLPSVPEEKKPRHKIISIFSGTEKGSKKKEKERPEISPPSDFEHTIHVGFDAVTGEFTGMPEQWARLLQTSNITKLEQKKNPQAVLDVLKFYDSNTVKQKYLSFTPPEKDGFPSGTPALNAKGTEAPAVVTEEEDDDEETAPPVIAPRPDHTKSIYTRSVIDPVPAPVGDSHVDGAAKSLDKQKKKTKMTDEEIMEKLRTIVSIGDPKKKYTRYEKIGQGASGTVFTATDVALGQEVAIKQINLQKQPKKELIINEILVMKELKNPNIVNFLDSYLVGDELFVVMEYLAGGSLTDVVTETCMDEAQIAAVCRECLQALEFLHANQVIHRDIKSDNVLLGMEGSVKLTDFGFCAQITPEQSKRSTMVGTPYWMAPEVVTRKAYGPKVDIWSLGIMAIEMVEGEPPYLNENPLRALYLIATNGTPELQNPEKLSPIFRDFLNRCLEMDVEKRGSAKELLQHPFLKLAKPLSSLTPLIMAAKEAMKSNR

[26] = biological target: Phosphatidylinositol 4,5-bisphosphate 3-kinase catalytic subunit gamma isoform (Homo sapiens) (UniProt P48736); conditions: Compound concentration 1000.0 nM
[27] = biological target: Phosphatidylinositol 5-phosphate 4-kinase type-2 gamma (Homo sapiens) (UniProt Q8TBX8); conditions: Compound concentration 1000.0 nM
[28] = biological target: Protein kinase C theta type (Homo sapiens) (UniProt Q04759); conditions: Compound concentration 1000.0 nM
[29] = biological target: Interferon-induced, double-stranded RNA-activated protein kinase (Homo sapiens) (UniProt P19525); conditions: Compound concentration 1000.0 nM
[30] = biological target: Protein-tyrosine kinase 2-beta (Homo sapiens) (UniProt Q14289); conditions: Compound concentration 1000.0 nM
[31] = biological target: RAF proto-oncogene serine/threonine-protein kinase (Homo sapiens) (UniProt P04049); conditions: Compound concentration 1000.0 nM
Sequence of RAF proto-oncogene serine/threonine-protein kinase (Homo sapiens) (P04049 whole entry): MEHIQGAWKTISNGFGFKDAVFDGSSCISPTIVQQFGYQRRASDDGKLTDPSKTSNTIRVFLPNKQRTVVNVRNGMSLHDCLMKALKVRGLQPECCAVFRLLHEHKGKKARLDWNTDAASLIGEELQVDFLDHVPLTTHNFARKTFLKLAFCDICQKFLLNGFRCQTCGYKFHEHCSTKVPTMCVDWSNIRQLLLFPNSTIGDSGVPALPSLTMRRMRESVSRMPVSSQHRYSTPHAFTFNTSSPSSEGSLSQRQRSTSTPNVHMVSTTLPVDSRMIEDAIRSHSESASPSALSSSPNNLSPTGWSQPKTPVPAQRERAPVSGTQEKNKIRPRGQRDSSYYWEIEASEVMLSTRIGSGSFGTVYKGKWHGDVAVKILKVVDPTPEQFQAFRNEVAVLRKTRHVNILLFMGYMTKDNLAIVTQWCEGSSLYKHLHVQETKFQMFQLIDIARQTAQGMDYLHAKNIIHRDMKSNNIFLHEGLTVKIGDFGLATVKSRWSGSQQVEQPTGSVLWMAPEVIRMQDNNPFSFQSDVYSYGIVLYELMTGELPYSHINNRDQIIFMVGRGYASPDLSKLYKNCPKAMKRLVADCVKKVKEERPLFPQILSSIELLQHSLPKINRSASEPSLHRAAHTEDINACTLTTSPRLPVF

[32] = biological target: Serine/threonine-protein kinase RIO1 (Homo sapiens) (UniProt Q9BRS2); conditions: Compound concentration 1000.0 nM
[33] = biological target: Receptor-interacting serine/threonine-protein kinase 4 (Homo sapiens) (UniProt P57078); conditions: Compound concentration 1000.0 nM
[34] = biological target: Ribosomal protein S6 kinase alpha-3 (Homo sapiens) (UniProt P51812); conditions: Compound concentration 1000.0 nM
[35] = biological target: SRSF protein kinase 1 (Homo sapiens) (UniProt Q96SB4); conditions: Compound concentration 1000.0 nM
[36] = biological target: Serine/threonine-protein kinase tousled-like 1 (Homo sapiens) (UniProt Q9UKI8); conditions: Compound concentration 1000.0 nM
[37] = biological target: Serine/threonine-protein kinase tousled-like 2 (Homo sapiens) (UniProt Q86UE8); conditions: Compound concentration 1000.0 nM
[38] = biological target: Non-receptor tyrosine-protein kinase TNK1 (Homo sapiens) (UniProt Q13470); conditions: Compound concentration 1000.0 nM
[39] = biological target: Testis-specific serine/threonine-protein kinase 3 (Homo sapiens) (UniProt Q96PN8); conditions: Compound concentration 1000.0 nM
[40] = biological target: Tyrosine-protein kinase receptor TYRO3 (Homo sapiens) (UniProt Q06418); conditions: Compound concentration 1000.0 nM
[41] = biological target: Wee1-like protein kinase (Homo sapiens) (UniProt P30291); conditions: Compound concentration 1000.0 nM
[42] = biological target: Serine/threonine-protein kinase WNK1 (Homo sapiens) (UniProt Q9H4A3); conditions: Compound concentration 1000.0 nM
[43] = biological target: Serine/threonine-protein kinase WNK4 (Homo sapiens) (UniProt Q96J92); conditions: Compound concentration 1000.0 nM
Sequence of Serine/threonine-protein kinase WNK4 (Homo sapiens) (Q96J92 whole entry): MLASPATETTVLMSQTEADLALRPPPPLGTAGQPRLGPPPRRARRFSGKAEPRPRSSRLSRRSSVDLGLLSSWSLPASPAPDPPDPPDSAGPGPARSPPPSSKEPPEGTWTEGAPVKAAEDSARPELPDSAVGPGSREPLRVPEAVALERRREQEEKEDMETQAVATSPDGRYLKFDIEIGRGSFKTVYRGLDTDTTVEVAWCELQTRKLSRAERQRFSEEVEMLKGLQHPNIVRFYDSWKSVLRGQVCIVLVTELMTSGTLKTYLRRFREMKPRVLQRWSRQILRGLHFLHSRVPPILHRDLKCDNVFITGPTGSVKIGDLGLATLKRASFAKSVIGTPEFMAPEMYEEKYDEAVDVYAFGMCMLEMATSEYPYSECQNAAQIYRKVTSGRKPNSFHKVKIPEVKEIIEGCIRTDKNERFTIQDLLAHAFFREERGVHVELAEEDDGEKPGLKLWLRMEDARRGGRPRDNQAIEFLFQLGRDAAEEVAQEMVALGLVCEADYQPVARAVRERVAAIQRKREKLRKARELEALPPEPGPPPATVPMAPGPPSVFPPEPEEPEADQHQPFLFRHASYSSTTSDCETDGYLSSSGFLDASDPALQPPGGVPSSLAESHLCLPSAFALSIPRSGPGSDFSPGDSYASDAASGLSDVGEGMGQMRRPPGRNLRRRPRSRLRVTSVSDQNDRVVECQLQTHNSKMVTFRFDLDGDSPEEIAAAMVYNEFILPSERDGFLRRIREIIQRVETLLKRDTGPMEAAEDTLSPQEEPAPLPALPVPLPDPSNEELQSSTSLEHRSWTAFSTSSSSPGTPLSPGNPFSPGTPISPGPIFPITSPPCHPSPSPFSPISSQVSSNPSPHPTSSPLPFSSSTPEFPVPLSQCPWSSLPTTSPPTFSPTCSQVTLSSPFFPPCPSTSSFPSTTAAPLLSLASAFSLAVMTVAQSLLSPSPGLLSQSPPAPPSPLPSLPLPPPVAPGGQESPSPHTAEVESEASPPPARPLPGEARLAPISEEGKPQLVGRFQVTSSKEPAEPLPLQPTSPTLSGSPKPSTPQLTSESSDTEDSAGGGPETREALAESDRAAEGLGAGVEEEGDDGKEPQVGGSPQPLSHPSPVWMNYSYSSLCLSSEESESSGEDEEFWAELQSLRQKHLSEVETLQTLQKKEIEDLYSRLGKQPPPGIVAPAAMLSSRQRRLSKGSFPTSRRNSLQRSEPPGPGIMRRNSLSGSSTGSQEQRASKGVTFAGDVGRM

[44] = biological target: Sodium-dependent dopamine transporter (Homo sapiens) (UniProt Q01959); conditions: Compound concentration 10.0 uM
Sequence of Sodium-dependent dopamine transporter (Homo sapiens) (Q01959 whole entry): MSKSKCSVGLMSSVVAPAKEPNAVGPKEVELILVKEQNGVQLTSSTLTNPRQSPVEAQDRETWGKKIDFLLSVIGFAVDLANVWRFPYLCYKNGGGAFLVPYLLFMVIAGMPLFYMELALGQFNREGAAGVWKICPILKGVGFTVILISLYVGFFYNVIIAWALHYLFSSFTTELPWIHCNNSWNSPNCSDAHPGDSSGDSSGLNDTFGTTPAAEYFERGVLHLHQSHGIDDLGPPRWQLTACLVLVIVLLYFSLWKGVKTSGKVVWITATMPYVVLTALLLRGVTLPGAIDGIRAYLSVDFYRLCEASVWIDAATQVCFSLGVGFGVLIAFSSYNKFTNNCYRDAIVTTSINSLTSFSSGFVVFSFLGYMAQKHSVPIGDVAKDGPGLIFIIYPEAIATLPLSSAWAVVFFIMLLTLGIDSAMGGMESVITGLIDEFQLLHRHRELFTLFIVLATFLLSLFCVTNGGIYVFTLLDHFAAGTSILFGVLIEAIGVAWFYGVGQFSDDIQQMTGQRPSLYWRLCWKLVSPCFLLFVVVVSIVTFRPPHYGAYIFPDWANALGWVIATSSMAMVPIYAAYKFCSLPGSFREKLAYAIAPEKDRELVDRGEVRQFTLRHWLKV

[45] = biological target: Alpha-1A adrenergic receptor (Homo sapiens) (UniProt P35348); conditions: Compound concentration 10.0 uM

## CS(=O)(=O)NCC[C@H](NC(=O)c1cncc2c1cnn2-c1ccc(F)cc1)c1ccnc(S(C)(=O)=O)c1 [BI 9307]
[1]
  residual activity: 93%
[2]
  residual activity: 90%
[3]
  residual activity: 100%
[4]
  residual activity: 100%
[5]
  residual activity: 100%
[6]
  residual activity: 100%
[7]
  residual activity: 100%
[8]
  residual activity: 100%
[9]
  residual activity: 77%
[10]
  residual activity: 94%
[11]
  residual activity: 91%
[12]
  residual activity: 100%
[13]
  residual activity: 93%
[14]
  residual activity: 100%
[15]
  residual activity: 100%
[16]
  residual activity: 100%
[17]
  residual activity: 100%
[18]
  residual activity: 100%
[19]
  residual activity: 86%
[20]
  residual activity: 75%
[21]
  residual activity: 82%
[22]
  residual activity: 100%
[23]
  residual activity: 100%
[24]
  residual activity: 100%
[25]
  residual activity: 71%
[26]
  residual activity: 80%
[27]
  residual activity: 0%
[28]
  residual activity: 100%
[29]
  residual activity: 53%
[30]
  residual activity: 84%
[31]
  residual activity: 76%
[32]
  residual activity: 85%
[33]
  residual activity: 88%
[34]
  residual activity: 100%
[35]
  residual activity: 83%
[36]
  residual activity: 100%
[37]
  residual activity: 100%
[38]
  residual activity: 100%
[39]
  residual activity: 100%
[40]
  residual activity: 94%
[41]
  residual activity: 99%
[42]
  residual activity: 100%
[43]
  residual activity: 100%
[44]
  inhibition: 25.3%
[45]
  inhibition: -3.82%

## CS(=O)(=O)c1cc(C2(NC(=O)c3cncc4c3cnn4-c3ccc(F)cc3)CC2)ccn1 [BI 639667]
[1]
  residual activity: 75%
[2]
  residual activity: 86%
[3]
  residual activity: 100%
[4]
  residual activity: 100%
[5]
  residual activity: 100%
[6]
  residual activity: 91%
[7]
  residual activity: 100%
[8]
  residual activity: 89%
[9]
  residual activity: 100%
[10]
  residual activity: 100%
[11]
  residual activity: 95%
[12]
  residual activity: 100%
[13]
  residual activity: 100%
[14]
  residual activity: 93%
[15]
  residual activity: 85%
[16]
  residual activity: 96%
[17]
  residual activity: 100%
[18]
  residual activity: 100%
[19]
  residual activity: 88%
[20]
  residual activity: 100%
[21]
  residual activity: 74%
[22]
  residual activity: 85%
[23]
  residual activity: 100%
[24]
  residual activity: 100%
[25]
  residual activity: 100%
[26]
  residual activity: 82%
[27]
  residual activity: 100%
[28]
  residual activity: 99%
[29]
  residual activity: 60%
[30]
  residual activity: 100%
[31]
  residual activity: 100%
[32]
  residual activity: 80%
[33]
  residual activity: 87%
[34]
  residual activity: 99%
[35]
  residual activity: 100%
[36]
  residual activity: 75%
[37]
  residual activity: 100%
[38]
  residual activity: 80%
[39]
  residual activity: 100%
[40]
  residual activity: 91%
[41]
  residual activity: 100%
[42]
  residual activity: 100%
[43]
  residual activity: 97%
[44]
  inhibition: 22.5%
[45]
  inhibition: -7.71%

From ChEMBL document CHEMBL4507278 (2021)
